Data taken from ChEMBL document CHEMBL5131391, “One-pot three-component synthesis of novel pyrazolo[3,4-b]pyridines as potent antileukemic agents” (Eur J Med Chem, 2022).

Each molecule was assayed on CCRF-CEM (assay: Antiproliferative activity against human CCRF-CEM cells assessed as growth inhibition at 10 uM measured after 48 hrs by NCI protocol based SRB assay relative to control). Conditions: read-out: GI.
Assay type: functional
N#Cc1c(-c2ccc(Cl)cc2)nc2c(c(-c3ccccc3)nn2-c2ccccc2)c1-c1ccc(O)cc1 was tested, and the inhibition of growth at 10 µM was 73%.

These molecules were tested on HOP-62 (assay: Antiproliferative activity against human HOP-62 cells assessed as growth inhibition at 10 uM measured after 48 hrs by NCI protocol based SRB assay relative to control). Conditions: read-out: GI.
Assay type: functional
Work on N#Cc1c(-c2ccc(Cl)cc2)nc2c(c(-c3ccccc3)nn2-c2ccccc2)c1-c1ccc(O)cc1 yielded an inhibition of growth at 10 µM of 51%.

What follows are molecules tested on NCI-H226 (assay: Antiproliferative activity against human NCI-H226 cells assessed as growth inhibition at 10 uM measured after 48 hrs by NCI protocol based SRB assay relative to control). Conditions: read-out: GI.
Assay type: functional
Work on N#Cc1c(-c2ccc(Cl)cc2)nc2c(c(-c3ccccc3)nn2-c2ccccc2)c1-c1ccc(O)cc1 yielded an inhibition of growth at 10 µM of 35%.

These molecules were tested on HCT-116 (assay: Antiproliferative activity against human HCT-116 cells assessed as growth inhibition at 10 uM measured after 48 hrs by NCI protocol based SRB assay relative to control). Conditions: read-out: GI.
Assay type: functional
N#Cc1c(-c2ccc(Cl)cc2)nc2c(c(-c3ccccc3)nn2-c2ccccc2)c1-c1ccc(O)cc1 gave an inhibition of growth at 10 µM of 86%.

The molecules below were run on COLO 205 (assay: Antiproliferative activity against human COLO 205 cells assessed as growth inhibition at 10 uM measured after 48 hrs by NCI protocol based SRB assay relative to control). Conditions: read-out: GI.
Assay type: functional
Work on N#Cc1c(-c2ccc(Cl)cc2)nc2c(c(-c3ccccc3)nn2-c2ccccc2)c1-c1ccc(O)cc1 yielded an inhibition of growth at 10 µM of 48%.

What follows are molecules tested on KM12 (assay: Antiproliferative activity against human KM12 cells assessed as growth inhibition at 10 uM measured after 48 hrs by NCI protocol based SRB assay relative to control). Conditions: read-out: GI.
Assay type: functional
For N#Cc1c(-c2ccc(Cl)cc2)nc2c(c(-c3ccccc3)nn2-c2ccccc2)c1-c1ccc(O)cc1, the inhibition of growth at 10 µM was 59%.

The molecules below were run on HCC 2998 (assay: Antiproliferative activity against human HCC 2998 cells assessed as growth inhibition at 10 uM measured after 48 hrs by NCI protocol based SRB assay relative to control). Conditions: read-out: GI.
Assay type: functional
In the case of N#Cc1c(-c2ccc(Cl)cc2)nc2c(c(-c3ccccc3)nn2-c2ccccc2)c1-c1ccc(O)cc1, the inhibition of growth at 10 µM is reported as 16%.

What follows are molecules tested on SF-539 (assay: Antiproliferative activity against human SF-539 cells assessed as growth inhibition at 10 uM measured after 48 hrs by NCI protocol based SRB assay relative to control). Conditions: read-out: GI.
Assay type: functional
Work on N#Cc1c(-c2ccc(Cl)cc2)nc2c(c(-c3ccccc3)nn2-c2ccccc2)c1-c1ccc(O)cc1 yielded an inhibition of growth at 10 µM of 89%.

What follows are molecules tested on SF-295 (assay: Antiproliferative activity against human SF-295 cells assessed as growth inhibition at 10 uM measured after 48 hrs by NCI protocol based SRB assay relative to control). Conditions: read-out: GI.
Assay type: functional
In the case of N#Cc1c(-c2ccc(Cl)cc2)nc2c(c(-c3ccccc3)nn2-c2ccccc2)c1-c1ccc(O)cc1, the inhibition of growth at 10 µM is reported as 99%.

Each molecule was assayed on MDA-MB-435 (assay: Antiproliferative activity against human MDA-MB-435 cells assessed as growth inhibition at 10 uM measured after 48 hrs by NCI protocol based SRB assay relative to control). Conditions: read-out: GI.
Assay type: functional
Work on N#Cc1c(-c2ccc(Cl)cc2)nc2c(c(-c3ccccc3)nn2-c2ccccc2)c1-c1ccc(O)cc1 yielded an inhibition of growth at 10 µM of 52%.

What follows are molecules tested on Malme-3M (assay: Antiproliferative activity against human Malme-3M cells assessed as growth inhibition at 10 uM measured after 48 hrs by NCI protocol based SRB assay relative to control). Conditions: read-out: GI.
Assay type: functional
In the case of N#Cc1c(-c2ccc(Cl)cc2)nc2c(c(-c3ccccc3)nn2-c2ccccc2)c1-c1ccc(O)cc1, the inhibition of growth at 10 µM is reported as 39%.

The molecules below were run on LOX IMVI (assay: Antiproliferative activity against human LOX IMVI cells assessed as growth inhibition at 10 uM measured after 48 hrs by NCI protocol based SRB assay relative to control). Conditions: read-out: GI.
Assay type: functional
With N#Cc1c(-c2ccc(Cl)cc2)nc2c(c(-c3ccccc3)nn2-c2ccccc2)c1-c1ccc(O)cc1 the inhibition of growth at 10 µM was 74%.

What follows are molecules tested on SK-MEL-2 (assay: Antiproliferative activity against human SK-MEL-2 cells assessed as growth inhibition at 10 uM measured after 48 hrs by NCI protocol based SRB assay relative to control). Conditions: read-out: GI.
Assay type: functional
N#Cc1c(-c2ccc(Cl)cc2)nc2c(c(-c3ccccc3)nn2-c2ccccc2)c1-c1ccc(O)cc1 showed an inhibition of growth at 10 µM of 26%.

The molecules below were run on IGROV-1 (assay: Antiproliferative activity against human IGROV-1 cells assessed as growth inhibition at 10 uM measured after 48 hrs by NCI protocol based SRB assay relative to control). Conditions: read-out: GI.
Assay type: functional
Work on N#Cc1c(-c2ccc(Cl)cc2)nc2c(c(-c3ccccc3)nn2-c2ccccc2)c1-c1ccc(O)cc1 yielded an inhibition of growth at 10 µM of 31%.

The molecules below were run on OVCAR-3 (assay: Antiproliferative activity against human OVCAR-3 cells assessed as growth inhibition at 10 uM measured after 48 hrs by NCI protocol based SRB assay relative to control). Conditions: read-out: GI.
Assay type: functional
N#Cc1c(-c2ccc(Cl)cc2)nc2c(c(-c3ccccc3)nn2-c2ccccc2)c1-c1ccc(O)cc1 showed an inhibition of growth at 10 µM of 52%.

What follows are molecules tested on OVCAR-4 (assay: Antiproliferative activity against human OVCAR-4 cells assessed as growth inhibition at 10 uM measured after 48 hrs by NCI protocol based SRB assay relative to control). Conditions: read-out: GI.
Assay type: functional
With N#Cc1c(-c2ccc(Cl)cc2)nc2c(c(-c3ccccc3)nn2-c2ccccc2)c1-c1ccc(O)cc1 the inhibition of growth at 10 µM was 36%.

The molecules below were run on OVCAR-5 (assay: Antiproliferative activity against human OVCAR-5 cells assessed as growth inhibition at 10 uM measured after 48 hrs by NCI protocol based SRB assay relative to control). Conditions: read-out: GI.
Assay type: functional
Molecule N#Cc1c(-c2ccc(Cl)cc2)nc2c(c(-c3ccccc3)nn2-c2ccccc2)c1-c1ccc(O)cc1 has an inhibition of growth at 10 µM of 17%.

These molecules were tested on SN12C (assay: Antiproliferative activity against human SN12C cells assessed as growth inhibition at 10 uM measured after 48 hrs by NCI protocol based SRB assay relative to control). Conditions: read-out: GI.
Assay type: functional
For N#Cc1c(-c2ccc(Cl)cc2)nc2c(c(-c3ccccc3)nn2-c2ccccc2)c1-c1ccc(O)cc1, the inhibition of growth at 10 µM was 118%.

Each molecule was assayed on ACHN (assay: Antiproliferative activity against human ACHN cells assessed as growth inhibition at 10 uM measured after 48 hrs by NCI protocol based SRB assay relative to control). Conditions: read-out: GI.
Assay type: functional
Work on N#Cc1c(-c2ccc(Cl)cc2)nc2c(c(-c3ccccc3)nn2-c2ccccc2)c1-c1ccc(O)cc1 yielded an inhibition of growth at 10 µM of 44%.

Each molecule was assayed on RXF 393 (assay: Antiproliferative activity against human RXF 393 cells assessed as growth inhibition at 10 uM measured after 48 hrs by NCI protocol based SRB assay relative to control). Conditions: read-out: GI.
Assay type: functional
N#Cc1c(-c2ccc(Cl)cc2)nc2c(c(-c3ccccc3)nn2-c2ccccc2)c1-c1ccc(O)cc1 showed an inhibition of growth at 10 µM of 127%.

The molecules below were run on TK-10 (assay: Antiproliferative activity against human TK-10 cells assessed as growth inhibition at 10 uM measured after 48 hrs by NCI protocol based SRB assay relative to control). Conditions: read-out: GI.
Assay type: functional
N#Cc1c(-c2ccc(Cl)cc2)nc2c(c(-c3ccccc3)nn2-c2ccccc2)c1-c1ccc(O)cc1 gave an inhibition of growth at 10 µM of 83%.

The molecules below were run on BT-549 (assay: Antiproliferative activity against human BT-549 cells assessed as growth inhibition at 10 uM measured after 48 hrs by NCI protocol based SRB assay relative to control). Conditions: read-out: GI.
Assay type: functional
N#Cc1c(-c2ccc(Cl)cc2)nc2c(c(-c3ccccc3)nn2-c2ccccc2)c1-c1ccc(O)cc1 was tested, and the inhibition of growth at 10 µM was 38%.

Each molecule was assayed on MDA-MB-468 (assay: Antiproliferative activity against human MDA-MB-468 cells assessed as growth inhibition at 10 uM measured after 48 hrs by NCI protocol based SRB assay relative to control). Conditions: read-out: GI.
Assay type: functional
Work on N#Cc1c(-c2ccc(Cl)cc2)nc2c(c(-c3ccccc3)nn2-c2ccccc2)c1-c1ccc(O)cc1 yielded an inhibition of growth at 10 µM of 69%.

The molecules below were run on CCRF-CEM (assay: Antiproliferative activity against human CEM cells assessed as reduction in cell viability incubated for 72 hrs by resazurin dye based assay). Conditions: not given.
Assay type: functional
For N#Cc1c(-c2ccc(Cl)cc2)nc2c(c(-c3ccccc3)nn2-c2ccccc2)c1-c1ccc(O)cc1, the IC50 was 43.1 µM.
